In US11964973B2 (priority 2019, dated 2024):

tested on: Human venous whole blood (IFN-γ); experiment: Human whole blood IFN-γ assay; format: cell-based; details: Homo sapiens, 24 h, human whole blood, anti-CD3 plus anti-CD28, 24 hours; read-out: INFg Whole Blood Normalized Agonist EC50
Experimental: Assay 10: Human Whole Blood IFN-γ Assay
Human venous whole blood (22.5 μL per well), obtained from healthy donors, was pre-treated with compounds for one hour at 37° C. in a humidified 95% air/5% CO2 incubator. The blood was stimulated with 2.5 μL anti-human CD3 and anti-CD28 mAb at a final concentration of 1 μg/mL each for 24 hours at 37° C. IFN-γ in the supernatants was measured using AlphLISA kit (Cat #AL217).

Row | Structure (SMILES) | EC50 [nM]
1 | C[C@@H]1CN(c2cc(=O)n(C)c3ccc(C#N)nc23)CC[C@H]1Oc1ccc(C2CC2)cc1 (racemic) [Example 111, 8-((3R,4R)-4-(4-cyclopropylphenoxy)-3-methylpiperidin-1-yl)-5-methyl-6-oxo-5,6-dihydro-1,5-naphthyridine-2-carbonitrile] | 3300
2 | C[C@@H]1CN(c2cc(=O)n(C)c3ccc(C#N)nc23)CC[C@H]1Oc1ccc(C(C)(C)C)cc1 (single isomer, unassigned) [Example 90] | 5600
3 | C[C@@H]1CN(c2cc(=O)n(C)c3ccc(C#N)nc23)CC[C@H]1Oc1c(F)cccc1F (single isomer, unassigned) [Example 126] | 20000
4 | C[C@@H]1CN(c2cc(=O)n(C)c3ccc(C#N)nc23)CC[C@H]1Oc1ccc(C(C)(C)C)cc1 [Example 88, 8-((3R,4R)-4-(4-(tert-butyl)phenoxy)-3-methylpiperidin-1-yl)-5-methyl-6-oxo-5,6-dihydro-1,5-naphthyridine-2-carbonitrile] | 880
5 | CC[C@@H]1CN(c2cc(=O)n(C)c3ccc(C#N)nc23)CC[C@H]1Oc1cccc(C2CC2)c1 [Example 156, 8-((3R,4R)-4-(3-cyclopropylphenoxy)-3-ethylpiperidin-1-yl)-5-methyl-6-oxo-5,6-dihydro-1,5-naphthyridine-2-carbonitrile] | 1800
6 | CC[C@@H]1CN(c2cc(=O)n(C)c3ccc(C#N)nc23)CC[C@H]1Oc1ccc(C(C)(C)CC)cc1 (racemic) [Example 149, 8-((3R,4R)-3-ethyl-4-(4-(tert-pentyl)phenoxy)piperidin-1-yl)-5-methyl-6-oxo-5,6-dihydro-1,5-naphthyridine-2-carbonitrile] | 1400
7 | C[C@@H]1CN(c2cc(=O)n(C)c3ccc(C#N)nc23)CC[C@H]1Oc1ccc(OC(F)(F)F)cc1 (single isomer, unassigned) [Example 80, 6-cyano-1-methyl-4-(trans-3-methyl-4-(4-(trifluoromethoxy)phenoxy)piperidin-1-yl)-1,5-naphthyridin-2(1H)-one (rel)] | 2400
8 | C[C@@H]1CN(c2cc(=O)n(C)c3ccc(C#N)nc23)CC[C@H]1Oc1ccc(OC(F)(F)F)cc1 (racemic) [Example 79, (+/−) 6-cyano-1-methyl-4-(trans-3-methyl-4-(4-(trifluoromethoxy)phenoxy)piperidin-1-yl)-1,5-naphthyridin-2(1H)-one] | 2200
9 | C[C@@H]1CN(c2cc(=O)n(C)c3ccc(C#N)nc23)CC[C@H]1Oc1c(F)cccc1C(F)(F)F (racemic) [Example 124, 8-((3R,4R)-4-(2-fluoro-6-(trifluoromethyl)phenoxy)-3-methylpiperidin-1-yl)-5-methyl-6-oxo-5,6-dihydro-1,5-naphthyridine-2-carbonitrile] | 20000
10 | CCc1ccc(O[C@@H]2CCN(c3cc(=O)n(C)c4ccc(C#N)nc34)C[C@H]2C)cc1 (racemic) [Example 110, 8-((3R,4R)-4-(4-ethylphenoxy)-3-methylpiperidin-1-yl)-5-methyl-6-oxo-5,6-dihydro-1,5-naphthyridine-2-carbonitrile] | 3000

same assay, conditions: Homo sapiens, human whole blood IFN-γ; read-out: INFg Whole Blood

Row | Structure (SMILES) | EC50 [nM]
11 | C[C@@H]1CN(c2cc(=O)n(C)c3ccc(C#N)nc23)CC[C@@H]1Oc1ccc(C(F)(F)F)cc1 (racemic) [Example 186, (+/−) 5-methyl-8-(cis-3-methyl-4-(4-(trifluoromethyl)phenoxy)piperidin-1-yl)-6-oxo-5,6-dihydro-1,5-naphthyridine-2-carbonitrile] | 1600
12 | CC(C)c1cccc(O[C@H]2CCN(c3cc(=O)n(C)c4ccc(C#N)nc34)C[C@H]2C)n1 [Example 214, 8-((3R,4S)-4-((6-isopropylpyridin-2-yl)oxy)-3-methylpiperidin-1-yl)-5-methyl-6-oxo-5,6-dihydro-1,5-naphthyridine-2-carbonitrile] | 5000
13 | CCCc1cc(O[C@@H]2CCN(c3cc(=O)n(C)c4ccc(C#N)nc34)C[C@H]2CC)ccc1F [Example 195, 8-((3R,4R)-3-ethyl-4-(4-fluoro-3-propylphenoxy)piperidin-1-yl)-5-methyl-6-oxo-5,6-dihydro-1,5-naphthyridine-2-carbonitrile] | 330
14 | C[C@@H]1CN(c2cc(=O)n(C)c3ccc(C#N)nc23)CC[C@@H]1Oc1ncc(C2CC2)cn1 [Example 223, 8-((3R,4S)-4-((5-cyclopropylpyrimidin-2-yl)oxy)-3-methylpiperidin-1-yl)-5-methyl-6-oxo-5,6-dihydro-1,5-naphthyridine-2-carbonitrile] | 17000
15 | C[C@@H]1CN(c2cc(=O)n(C)c3ccc(C#N)nc23)CC[C@@H]1Oc1ccc(C(F)(F)F)cn1 (single isomer, unassigned) [Example 226] | 2400
16 | C[C@@H]1CN(c2cc(=O)n(C)c3ccc(C#N)nc23)CC[C@@H]1Oc1ccc(C(F)F)cn1 [Example 208, 8-((3R,4S)-4-((5-(difluoromethyl)pyridin-2-yl)oxy)-3-methylpiperidin-1-yl)-5-methyl-6-oxo-5,6-dihydro-1,5-naphthyridine-2-carbonitrile] | 2100
17 | CC(C)Oc1ccc(O[C@@H]2CCN(c3cc(=O)n(C)c4ccc(C#N)nc34)C[C@H]2C)nc1 (mixture of isomers) [Example 199, 8-((3R,4R)-4-((5-isopropoxypyridin-2-yl)oxy)-3-methylpiperidin-1-yl)-5-methyl-6-oxo-5,6-dihydro-1,5-naphthyridine-2-carbonitrile] | 2100
18 | CC(C)c1ccc(O[C@H]2CCN(c3cc(=O)n(C)c4ccc(C#N)nc34)C[C@H]2C)nc1 [Example 205, 8-((3R,4S)-4-((5-isopropylpyridin-2-yl)oxy)-3-methylpiperidin-1-yl)-5-methyl-6-oxo-5,6-dihydro-1,5-naphthyridine-2-carbonitrile] | 370
19 | C[C@@H]1CN(c2cc(=O)n(C)c3ccc(C#N)nc23)CC[C@@H]1Oc1ncc(C(F)(F)F)cn1 [Example 222, 5-methyl-8-((3R,4S)-3-methyl-4-((5-(trifluoromethyl)pyrimidin-2-yl)oxy)piperidin-1-yl)-6-oxo-5,6-dihydro-1,5-naphthyridine-2-carbonitrile] | 3900
20 | C[C@@H]1CN(c2cc(=O)n(C)c3ccc(C#N)nc23)CC[C@@H]1Oc1ncccn1 [Example 217, 5-methyl-8-((3R,4S)-3-methyl-4-(pyrimidin-2-yloxy)piperidin-1-yl)-6-oxo-5,6-dihydro-1,5-naphthyridine-2-carbonitrile] | 20000

same assay, conditions: Homo sapiens, read-out: INFg Whole Blood, human whole blood IFN-γ

Row | Structure (SMILES) | EC50 [nM]
21 | CC[C@@H]1CN(c2cc(=O)n(C)c3ccc(C#N)nc23)CC[C@H]1Oc1cccc(C(C)(C)C)c1 [Example 196, 8-((3R,4R)-4-(3-(tert-butyl)phenoxy)-3-ethylpiperidin-1-yl)-5-methyl-6-oxo-5,6-dihydro-1,5-naphthyridine-2-carbonitrile] | 290

same assay, conditions: human whole blood IFN-γ; read-out: INFg Whole Blood

Row | Structure (SMILES) | EC50 [nM]
22 | CC(C)c1ccnc(O[C@H]2CCN(c3cc(=O)n(C)c4ccc(C#N)nc34)C[C@H]2C)c1 (single isomer, unassigned) [Example 212] | 1900
23 | CO[C@H]1CN(c2cc(=O)n(C)c3ccc(C#N)nc23)CC[C@@H]1Oc1ccc(OC(C)C)cn1 (racemic) [Example 269, (±)-trans-8-(4-((5-isopropoxypyridin-2-yl)oxy)-3-methoxypiperidin-1-yl)-5-methyl-6-oxo-5,6-dihydro-1,5-naphthyridine-2-carbonitrile] | 1600
24 | CC(C)Oc1ccc(OC2CCN(c3cc(=O)n(C)c4ccc(C#N)nc34)CC2(C)C)nc1 (single isomer, unassigned) [Example 234, 8-(4-((5-isopropoxypyridin-2-yl)oxy)-3,3-dimethylpiperidin-1-yl)-5-methyl-6-oxo-5,6-dihydro-1,5-naphthyridine-2-carbonitrile (rel)] | 9300
25 | CO[C@H]1CN(c2cc(=O)n(C)c3ccc(C#N)nc23)CC[C@@H]1Oc1ccc(OC(C)C)cn1 (racemic) [Example 270, (±)-trans-8-(4-((5-isopropoxypyridin-2-yl)oxy)-3-methoxypiperidin-1-yl)-5-methyl-6-oxo-5,6-dihydro-1,5-naphthyridine-2-carbonitrile] | 5400
26 | CC(C)Oc1ccc(OC2CCN(c3cc(=O)n(C)c4ccc(C#N)nc34)CC2(C)C)nc1 (single isomer, unassigned) [Example 233, 8-(4-((5-isopropoxypyridin-2-yl)oxy)-3,3-dimethylpiperidin-1-yl)-5-methyl-6-oxo-5,6-dihydro-1,5-naphthyridine-2-carbonitrile (rel)] | 3300

same assay, conditions: human whole blood, anti-CD3 plus anti-CD28, 24 hours; read-out: INFg Whole Blood Normalized Agonist EC50

Row | Structure (SMILES) | EC50 [nM]
27 | CC[C@@H]1CN(c2cc(=O)n(C)c3ccc(C#N)nc23)CC[C@H]1Oc1ccc(C(C)(C)CC)cc1 (single isomer, unassigned) [Example 151] | 2400
28 | CC[C@@H]1CN(c2cc(=O)n(C)c3ccc(C#N)nc23)CC[C@H]1Oc1ccc(C(C)(C)C)cc1 (single isomer, unassigned) [Example 154] | 11000
29 | C[C@@H]1CN(c2cc(=O)n(C)c3ccc(C#N)nc23)CC[C@H]1Oc1c(F)cccc1F (single isomer, unassigned) [Example 127] | 20000
30 | C[C@@H]1CN(c2cc(=O)n(C)c3ccc(C#N)nc23)CC[C@H]1Oc1ccc(C(F)(F)F)cc1 (single isomer, unassigned) [Example 98] | 1200
31 | CC[C@@H]1CN(c2cc(=O)n(C)c3ccc(C#N)nc23)CC[C@H]1Oc1cccc(C2CC2)c1 [Example 157, 8-((3R,4R)-4-(3-cyclopropylphenoxy)-3-ethylpiperidin-1-yl)-5-methyl-6-oxo-5,6-dihydro-1,5-naphthyridine-2-carbonitrile] | 2800

same assay, conditions: read-out: INFg Whole Blood; human whole blood IFN-γ

Row | Structure (SMILES) | EC50 [nM]
32 | CCO[C@@H]1CN(c2nc(=O)n(C)c3ccc(C#N)nc23)CC[C@H]1Oc1cccc(C(F)(F)F)c1 [Example 278, 4-((3R,4R)-3-ethoxy-4-(3-(trifluoromethyl)phenoxy)piperidin-1-yl)-1-methyl-2-oxo-1,2-dihydropyrido[3,2-d]pyrimidine-6-carbonitrile] | 640
